Reference: ChEMBL document CHEMBL1201862, “PubChem BioAssay data set” (2004)
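Assay format: 96-well plates, 48-hour exposure. GI50 = concentration required for 50% inhibition of growth.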 The source made the active and inactive calls. Rule as the data show it: active = GI50 up to about 1.1 µM and inactive = higher.

What was measured:
Assay in all cases: NCI tumour cell line growth inhibition, 48 h
SF-539 = system: SF-539
NCI-H460 = system: NCI-H460
M19-MEL = system: M19-MEL
SNB-75 = system: SNB-75
OVCAR-3 = system: OVCAR-3
HCC 2998 = system: HCC 2998
SK-OV-3 = system: SK-OV-3
HOP-62 = system: HOP-62
UACC-62 = system: UACC-62
HCT-15 = system: HCT-15
OVCAR-5 = system: OVCAR-5
U-251 = system: U-251
UO-31 = system: UO-31
NCI-H226 = system: NCI-H226
SK-MEL-2 = system: SK-MEL-2
CCRF-CEM = system: CCRF-CEM
ACHN = system: ACHN
BT-549 = system: BT-549
MDA-MB-435 = system: MDA-MB-435
SK-MEL-5 = system: SK-MEL-5

SMILES	GI50 (SF-539)	GI50 (NCI-H460)	GI50 (M19-MEL)	GI50 (SNB-75)	GI50 (OVCAR-3)	GI50 (HCC 2998)	GI50 (SK-OV-3)	GI50 (HOP-62)	GI50 (UACC-62)	GI50 (HCT-15)	GI50 (OVCAR-5)	GI50 (U-251)	GI50 (UO-31)	GI50 (NCI-H226)	GI50 (SK-MEL-2)	GI50 (CCRF-CEM)	GI50 (ACHN)	GI50 (BT-549)	GI50 (MDA-MB-435)	GI50 (SK-MEL-5)
O=c1oc2c3ccc4ccccc4c3n(Cc3nc4ccccc4[nH]3)c2c2ccccc12	3.54 µM (inactive)	0.518 µM (active)	5.46 µM (inactive)	5.51 µM (inactive)	7.08 µM (inactive)	40.4 µM (inactive)	> 100 µM (inactive)	4.16 µM (inactive)	3.28 µM (inactive)	1.37 µM	> 36.2 µM (inactive)	4.25 µM (inactive)	1.95 µM (inactive)	7.03 µM (inactive)	41.3 µM (inactive)	1.07 µM (active)	3.89 µM (inactive)	–	–	–
CN(C)CCNc1ccc2ncn3c4ccc(O)cc4c(=O)c1c23	0.46 µM (active)	0.0871 µM (active)	1.09 µM (active)	0.404 µM (active)	3.04 µM (inactive)	2.12 µM (inactive)	1.29 µM (inactive)	0.153 µM (active)	3.44 µM (inactive)	0.715 µM	3.38 µM (inactive)	0.214 µM (active)	0.845 µM (active)	0.476 µM (active)	3.79 µM (inactive)	0.171 µM (active)	0.158 µM (active)	14.2 µM (inactive)	2.41 µM (inactive)	0.714 µM (active)
O/N=C/c1ccc(O)c(O)c1	> 100 µM (inactive)	77.4 µM (inactive)	> 100 µM (inactive)	> 100 µM (inactive)	31.8 µM (inactive)	> 100 µM (inactive)	> 100 µM (inactive)	> 100 µM (inactive)	93.3 µM (inactive)	44.1 µM	> 100 µM (inactive)	61.7 µM (inactive)	54 µM (inactive)	> 100 µM (inactive)	> 100 µM (inactive)	7.38 µM (inactive)	39.9 µM (inactive)	–	–	62.8 µM (inactive)
Cc1cc(NS(=O)(=O)c2ccc(NC(=O)c3cccc4c(=O)c5ccccc5[nH]c34)cc2)no1	28.9 µM (inactive)	93.3 µM (inactive)	39.4 µM (inactive)	23.1 µM (inactive)	29.4 µM (inactive)	36.5 µM (inactive)	14.9 µM (inactive)	21.6 µM (inactive)	26.1 µM (inactive)	66.7 µM	94.6 µM (inactive)	29.9 µM (inactive)	15.7 µM (inactive)	41.9 µM (inactive)	34.7 µM (inactive)	32.6 µM (inactive)	65.6 µM (inactive)	–	–	40.8 µM (inactive)
CCN1/C(=C/C(C)=C/c2sc3ccccc3[n+]2CC)Sc2ccccc21	0.265 µM (active)	0.0621 µM (active)	0.173 µM (active)	0.239 µM (active)	0.172 µM (active)	0.255 µM (active)	0.0769 µM (active)	0.122 µM (active)	0.0927 µM (active)	0.395 µM	0.431 µM (active)	0.0378 µM (active)	0.0811 µM (active)	0.0625 µM (active)	0.201 µM (active)	0.0261 µM (active)	0.295 µM (active)	–	–	0.0925 µM (active)
O=c1cc(-c2ccc(O)cc2)oc2cc(O)cc(O)c12 [APIGENIN]	> 10 µM (inactive)	31.4 µM (inactive)	33.5 µM (inactive)	21.6 µM (inactive)	24.2 µM (inactive)	23.9 µM (inactive)	34.9 µM (inactive)	43.6 µM (inactive)	24.8 µM (inactive)	28.1 µM	30.5 µM (inactive)	22.6 µM (inactive)	23.9 µM (inactive)	24.7 µM (inactive)	29.9 µM (inactive)	20.4 µM (inactive)	15.1 µM (inactive)	–	–	25.4 µM (inactive)
Cn1cc2ccccc2c1-c1nc(F)nc(Oc2ccc3c(c2)CC[C@@H]2C3CC[C@@]3(C)C2CC[C@@H]3O)n1 (some centres not stated)	12.8 µM (inactive)	18.6 µM (inactive)	7.98 µM (inactive)	16.7 µM (inactive)	9.33 µM (inactive)	18.3 µM (inactive)	19.3 µM (inactive)	9.59 µM (inactive)	17.1 µM (inactive)	6.18 µM	18.6 µM (inactive)	6.73 µM (inactive)	24.4 µM (inactive)	13.5 µM (inactive)	4.2 µM (inactive)	3.08 µM (inactive)	17.7 µM (inactive)	–	–	12.8 µM (inactive)
COc1cc(O)c(C(=O)/C=C/c2ccc(OC)c(OCc3ccccc3)c2)c(OC)c1	> 100 µM (inactive)	> 100 µM (inactive)	> 100 µM (inactive)	22.1 µM (inactive)	38.5 µM (inactive)	46.9 µM (inactive)	> 100 µM (inactive)	> 100 µM (inactive)	1.42 µM (inactive)	10.3 µM	> 100 µM (inactive)	> 100 µM (inactive)	> 100 µM (inactive)	> 100 µM (inactive)	37.8 µM (inactive)	3.92 µM (inactive)	5.58 µM (inactive)	–	–	> 100 µM (inactive)
O=CN/C=C/c1ccc(O)c(O)c1	> 100 µM (inactive)	> 100 µM (inactive)	> 100 µM (inactive)	59.8 µM (inactive)	> 100 µM (inactive)	> 100 µM (inactive)	> 100 µM (inactive)	> 100 µM (inactive)	> 100 µM (inactive)	> 100 µM	> 100 µM (inactive)	> 100 µM (inactive)	> 100 µM (inactive)	> 100 µM (inactive)	> 100 µM (inactive)	> 100 µM (inactive)	> 100 µM (inactive)	–	–	–
CCOC(=O)C(=O)Nc1nc2c(s1)C(=O)c1ccccc1C2=O	17.7 µM (inactive)	19.2 µM (inactive)	2.49 µM (inactive)	16.2 µM (inactive)	5.62 µM (inactive)	17.7 µM (inactive)	> 10 µM (inactive)	18.9 µM (inactive)	17.5 µM (inactive)	15.6 µM	27.7 µM (inactive)	16.6 µM (inactive)	14.8 µM (inactive)	18.2 µM (inactive)	17.2 µM (inactive)	5.05 µM (inactive)	14.9 µM (inactive)	–	–	14.3 µM (inactive)
O=C1CCC2CCOc3ccc(O)c1c32 (configuration not stated)	> 100 µM (inactive)	> 100 µM (inactive)	> 100 µM (inactive)	> 100 µM (inactive)	> 100 µM (inactive)	> 100 µM (inactive)	> 100 µM (inactive)	> 100 µM (inactive)	> 100 µM (inactive)	> 100 µM	> 100 µM (inactive)	> 100 µM (inactive)	> 100 µM (inactive)	> 100 µM (inactive)	> 100 µM (inactive)	> 100 µM (inactive)	> 100 µM (inactive)	–	–	> 100 µM (inactive)
CCOC(=O)c1sc2c(C(=O)OCC)n3ccccc3c2c1N	64.1 µM (inactive)	> 100 µM (inactive)	> 100 µM (inactive)	31.7 µM (inactive)	> 100 µM (inactive)	> 100 µM (inactive)	38 µM (inactive)	19.2 µM (inactive)	> 100 µM (inactive)	> 100 µM	> 100 µM (inactive)	31.8 µM (inactive)	26.1 µM (inactive)	> 10 µM (inactive)	> 100 µM (inactive)	> 100 µM (inactive)	52.8 µM (inactive)	–	–	> 100 µM (inactive)
C(/COc1cccnc1)=N\NC1=NCCN1	> 100 µM (inactive)	> 100 µM (inactive)	> 100 µM (inactive)	> 100 µM (inactive)	> 100 µM (inactive)	> 100 µM (inactive)	> 100 µM (inactive)	> 100 µM (inactive)	> 100 µM (inactive)	> 100 µM	> 100 µM (inactive)	> 100 µM (inactive)	> 100 µM (inactive)	> 100 µM (inactive)	> 100 µM (inactive)	> 100 µM (inactive)	> 100 µM (inactive)	–	–	> 100 µM (inactive)
CCN(CC)CCCNc1ccc2nc(C)n3c4ccc(O)cc4c(=O)c1c23	9.38 µM (inactive)	0.838 µM (active)	10.6 µM (inactive)	0.881 µM (active)	8.09 µM (inactive)	7.43 µM (inactive)	6.64 µM (inactive)	3.21 µM (inactive)	10 µM (inactive)	3.62 µM	6.22 µM (inactive)	5.36 µM (inactive)	5.89 µM (inactive)	6.46 µM (inactive)	6.35 µM (inactive)	1.79 µM (inactive)	3.01 µM (inactive)	12.1 µM (inactive)	9.89 µM (inactive)	10.3 µM (inactive)
CS(=O)(=O)OCCN1CCN(C(=O)c2cccc3c(Nc4ccc(S(N)(=O)=O)cc4)c4ccccc4nc23)CC1	> 100 µM (inactive)	> 100 µM (inactive)	> 81.8 µM (inactive)	> 100 µM (inactive)	> 100 µM (inactive)	> 100 µM (inactive)	> 100 µM (inactive)	> 100 µM (inactive)	> 100 µM (inactive)	> 42.9 µM	> 100 µM (inactive)	> 100 µM (inactive)	> 100 µM (inactive)	> 100 µM (inactive)	> 100 µM (inactive)	> 44.1 µM (inactive)	> 100 µM (inactive)	–	–	> 100 µM (inactive)
